SMILES strings stand for the structures. “And” between values parts separate entries of the source, which are not always exact repeats. Equal entries are not always repeated. Where only a bound is given, the exact number is not on record here.

Here are results for two compounds from paper PMC11489226 (Archives of Toxicology, 2024).

For series [1], the target named is CYP2E1 (Homo sapiens, UniProt P05181). The series can be described thus: Metabolism in transgenic HEK293 cells expressing CYP2E1. Conditions: 20 µM parent PCB, 24 h, supernatant. On the procedure: (§1) For the generation of transgenic cell lines, we used semi-adherent HEK293 cells (DSMZ, ACC305, human embryonic kidney cells) which were cultured on a daily basis in DMEM medium supplemented with 10% (FCS) and 1% penicillin/streptomycin. In a first step CYP1A2, CYP2C8, CYP2C9, CYP3A4, CYP2A6, and CYP2E1 cDNA were cloned into the plasmid pcDNATM3.1/V5-His TOPO® using human liver RNA as a template and using the following primers: CYP1A2 for5′-[…]-3′, CYP1A2 rev 5′-[…]-3′; CYP2C8 for 5′-[…]-3′, CYP2C8 rev 5′-[…]-3′; CYP2C9 for 5′-[…]-3′, CYP2C9 rev 5′-[…]-3′; CYP3A4 for 5′-[…]-3′, CYP3A4 rev 5′-[…]-3′, CYP2A6 for 5′-[…]-3′, CYP2A6 rev 5′-[…]-3′; CYP2E1 for 5′-[…]-3′, CYP2E1 rev 5′-[…]-3′. Final constructs were verified with Sanger DNA sequencing and restriction digestion. For transfection, 3 × 10^6 HEK293 cells were pre-incubated in a 10 cm dish in DMEM medium with 10% FCS, but without antibiotics, for 18 to 24 h. When the cells reached approximately 70% confluency, they were transfected using TransIT-LT1 transfection reagent (Biozol, Eiching, Germany). The TransIT-LT1 reagent was warmed to room temperature and vortexed. 1.63 mL Opti-MEM, 16.25 µL plasmid DNA (1 µg/µL), and 48.75 µL TransIT-LT1 reagent were mixed and incubated for 15 to 30 min. The mixture was then added dropwise to the medium of the cells, and the cells were incubated again at 37 °C and 5% CO2. After 24 h, the medium was replaced with standard medium and geneticin was added for selection (1 mg/mL). Cells were selected for 6–8 weeks in bulk culture, and single cell clones were obtained subsequently by limiting dilution. Each clone was checked for insertion by PCR using genomic DNA as a template.
CYP2E1, sequence (P05181 whole entry): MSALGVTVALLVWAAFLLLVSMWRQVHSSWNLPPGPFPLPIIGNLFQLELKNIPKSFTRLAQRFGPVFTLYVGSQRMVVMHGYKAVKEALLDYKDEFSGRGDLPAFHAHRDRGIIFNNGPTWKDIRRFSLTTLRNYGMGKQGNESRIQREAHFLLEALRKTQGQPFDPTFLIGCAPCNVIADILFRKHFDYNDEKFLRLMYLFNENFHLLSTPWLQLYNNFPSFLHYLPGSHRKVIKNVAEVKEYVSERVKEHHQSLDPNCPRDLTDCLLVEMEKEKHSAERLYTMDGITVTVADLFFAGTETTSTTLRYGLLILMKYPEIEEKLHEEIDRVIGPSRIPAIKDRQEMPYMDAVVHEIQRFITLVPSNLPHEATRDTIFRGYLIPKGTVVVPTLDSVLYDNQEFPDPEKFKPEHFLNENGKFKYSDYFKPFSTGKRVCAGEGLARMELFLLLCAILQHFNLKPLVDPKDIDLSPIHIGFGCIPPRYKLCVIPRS
(§2) Parallel samples were run without the addition of PCBs. At a confluence of 80%, PCBs (20 μM each, dissolved in ethanol) were added and cells were incubated for 24 h before harvest of supernatants. Supernatants were diluted 1:2 with 80 μL acetate buffer 0.1 M (pH = 5.3). 100 μL of this dilution were further incubated with 100 μL of ammonium acetate buffer 0.1 M (pH = 5.3) and 5 μL of β-Glucuronidase/Arylsulfatase enzyme overnight in a drying oven at 37 °C for enzymatic hydrolysis to release conjugated compounds. 50 μL of a mix of internal standards (10 ng/mL) and 600 μL of methanol were added to the samples, then mixed by vortexing for 1 min and centrifuged for 10 min at 3400g. The individual supernatants were transferred to glass LC vials and evaporated to approximately 50 μL at 45 °C under a gentle stream of nitrogen. Finally, 0.1 mol/ L ammonium acetate buffer was added to a final volume of 100 μL and then transferred to an insert for analysis.
(§3) HEK293 cells overexpressing the respective CYP enzymes were seeded onto 6-well plates and were treated with or without 10 µM of the respective probe drug in DMEM medium for 24 hours at 37 °C and 5 % CO2. After incubation 200 µL DMEM were collected, cells were washed with PBS and adherent cells were lysed in 500 µL methanol for 20 minutes. Analytes were measured by LC-MS/MS either in methanol cell lysates or in DMEM supernatant.
(§4) 50 µL of DMEM samples were protein precipitated by adding 200 µL of methanol and were centrifuged for 20 min, 17,000 g and 4°C. Supernatants were diluted in water or 40 % methanol according to dilution factor. Methanol cell lysates were diluted ½ with water and centrifuged for 20 min, 17,000 g and 4°C. 5 µL of the processed samples were injected for LC-MS analysis.

Series [2] concerns the target T1, CYP2A6 (Homo sapiens, UniProt P11509).
T1 sequence (P11509 1-494): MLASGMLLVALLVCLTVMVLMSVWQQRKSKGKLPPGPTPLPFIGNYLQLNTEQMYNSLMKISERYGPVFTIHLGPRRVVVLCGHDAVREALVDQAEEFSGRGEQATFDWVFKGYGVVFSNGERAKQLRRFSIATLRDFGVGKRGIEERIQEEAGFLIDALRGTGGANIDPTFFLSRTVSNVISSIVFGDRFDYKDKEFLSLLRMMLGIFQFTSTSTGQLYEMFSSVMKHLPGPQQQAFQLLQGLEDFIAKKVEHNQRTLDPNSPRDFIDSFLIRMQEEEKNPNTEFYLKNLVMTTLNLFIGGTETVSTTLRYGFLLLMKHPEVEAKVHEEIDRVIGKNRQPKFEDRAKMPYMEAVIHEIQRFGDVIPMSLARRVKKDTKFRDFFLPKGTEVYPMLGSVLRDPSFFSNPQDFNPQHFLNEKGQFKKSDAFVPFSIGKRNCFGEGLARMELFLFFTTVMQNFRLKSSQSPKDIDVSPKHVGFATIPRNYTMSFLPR
The series can be described thus: Metabolism in transgenic HEK293 cells expressing CYP2A6. The series is classed as in vitro ADME. More on the design: V5-His (vector-encoded) (C); expressed in transfected cells. Conditions: 20 µM parent PCB, 24 h; for Quantification of metabolites generated from PCB28, 52, and 101: supernatant. On the procedure:
as §1, §2, §3, §4

The target of series [3] is CYP3A4 (Homo sapiens, UniProt P08684). Kind of series: Metabolism in transgenic HEK293 cells expressing CYP3A4. Conditions: 20 µM parent PCB, 24 h, supernatant. On the procedure: as §1, §2, §3, §4
CYP3A4, sequence (P08684 whole entry): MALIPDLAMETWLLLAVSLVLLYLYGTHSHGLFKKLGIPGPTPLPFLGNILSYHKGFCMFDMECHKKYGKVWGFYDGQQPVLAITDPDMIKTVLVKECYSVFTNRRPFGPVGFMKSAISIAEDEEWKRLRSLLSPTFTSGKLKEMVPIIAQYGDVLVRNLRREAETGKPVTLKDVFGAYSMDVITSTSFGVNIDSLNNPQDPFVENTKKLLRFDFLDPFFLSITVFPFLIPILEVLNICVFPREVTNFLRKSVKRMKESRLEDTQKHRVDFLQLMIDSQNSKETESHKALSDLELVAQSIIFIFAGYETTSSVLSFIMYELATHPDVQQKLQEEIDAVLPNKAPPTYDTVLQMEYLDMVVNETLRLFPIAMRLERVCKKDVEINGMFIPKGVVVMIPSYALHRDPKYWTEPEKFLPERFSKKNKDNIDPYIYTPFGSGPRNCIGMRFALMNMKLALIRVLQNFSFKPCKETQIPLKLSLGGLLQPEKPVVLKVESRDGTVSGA

With `Oc1cc(Cl)c(-c2ccc(Cl)cc2)cc1Cl` [4-OHCB31, 2,4′,5-trichloro-4-biphenylol], the “Quantification of metabolites generated from PCB28, 52, and 101” value (“Quantification of metabolites generated” below) in series [1] (CYP2E1 Clone B4) was “<LOQ”; in series [1] (CYP2E1 Clone B5), “<LOQ”; in series [1] (CYP2E1 Clone E6) it was “<LOQ”; in series [2] (CYP2A6 Clone C4) it was 0,63 nM; in series [2] (CYP2A6 Clone C5), 0,11 nM; in series [3] (CYP3A4 Clone B4), “<LOQ”. Moreover, the “Quantification of metabolites generated” value in series [3] (CYP3A4 Clone D10) and in series [3] (CYP3A4 Clone E6) was “<LOQ” throughout. The “Metabolite concentration formed, range across cell clones” value in series [2] (HEK293CYP2A6 cell lines) was 0.18–1.31 µg/L and 0.66–4.8 nM.
As for `Oc1cc(-c2ccc(Cl)cc2)c(Cl)cc1Cl` [5-OHCB28, 2,4,4′-trichloro-5-biphenylol], the “Quantification of metabolites generated” value in series [1] (CYP2E1 Clone B4) is given as “<LOQ”; in series [1] (CYP2E1 Clone B5), “<LOQ”; in series [1] (CYP2E1 Clone E6) it was “<LOQ”; in series [2] (CYP2A6 Clone B7) it was 1,84 nM; in series [2] (CYP2A6 Clone C4), 1,33 nM; in series [2] (CYP2A6 Clone C5) it was 0,22 nM. For the same compound, the “Quantification of metabolites generated” value in series [3] (CYP3A4 Clone B4), in series [3] (CYP3A4 Clone D10) and in series [3] (CYP3A4 Clone E6) was “<LOQ” throughout.
